Key:
Phosphodiesterase 4 [1] = biological target: T1, Phosphodiesterase 4 (Homo sapiens, UniProt P27815+Q08499+Q07343+Q08493); experiment: Inhibition of PDE4 from U937 monocytic cells; format: cell-based; details: u-937
Rattus norvegicus [2] = experiment: Inhibition of LPS-induced TNF-alpha production in rats 0.5 hr after oral dose; format: functional; details: for ED50: read-out: ID50 (the source's name)
Rattus norvegicus [3] = organism: Rattus norvegicus; experiment: (§1) Inhibition of gastric emptying in rats; format: functional; details: Stomach, read-out: ID50 (the source's name)
Homo sapiens = organism: Homo sapiens; experiment: Inhibition of LPS induced TNF-alpha production in human whole blood; format: functional; details: read-out: ID50 (the source's name)
Cavia porcellus = experiment: Inhibition of SRS-A-mediated bronchoconstriction and airway microvascular leakage in sensitized guinea pigs […] 1 hr prio to challenge; format: functional; details: Lung, route oral, read-out: ID50 (the source's name)
Phosphodiesterase 4 [4] = biological target: T1, Phosphodiesterase 4; experiment: Inhibition of PDE4 (Phosphodiesterase 4) from U937 cells; format: cell-based; details: U-937, concentration not given here
Rattus norvegicus [5] = organism: Rattus norvegicus; experiment: as §1; format: functional, Stomach

Row | SMILES | IC50 (Phosphodiesterase 4 [1]) [nM] | Inhibition (Rattus norvegicus [2]) [%] | ED50 (Rattus norvegicus [2]) [mg/kg] | also measured
1 | COc1ccc([C@@]2(C#N)C[C@H]3C[C@@H](C(=O)O)C[C@H]3C2)cc1OC1CCCC1 | > 300 |  |  | 
2 | COc1ccc([C@]2(C#N)C[C@H]3C[C@@H](C(=O)NO)C[C@H]3C2)cc1OC(C)C | 12 | 47 |  | 
3 | CCOc1cc([C@]2(C#N)C[C@H]3C[C@@H](C(=O)O)C[C@H]3C2)ccc1OC | 26 |  | 2.9 | ED50 (Rattus norvegicus [3]): 17 mg/kg; IC50 (Homo sapiens): 5800 nM
4 | COc1ccc([C@]2(C#N)C[C@H]3C[C@@H](C(=O)NO)C[C@H]3C2)cc1OC1Cc2ccccc2C1 | 0.85 | 17 |  | 
5 | COc1ccc([C@]2(C#N)C[C@H]3C[C@@H](C(=O)NO)C[C@H]3C2)cc1OCC1CC1 | 29 |  | 3 | 
6 | CCOc1cc([C@]2(C#N)C[C@H]3C[C@@H](C(=O)NO)C[C@H]3C2)ccc1OC |  |  | 1.8 | ED50 (Rattus norvegicus [3]): 12 mg/kg; ED50 (Cavia porcellus): 5 mg/kg; inhibition (Phosphodiesterase 4 [4]): 56%; IC50 (Homo sapiens): 800 nM
7 | COc1ccc([C@]2(C#N)CC[C@@H](C(=O)O)CC2)cc1OC1CCCC1 [CILOMILAST] |  |  | 1.7 | ED50 (Rattus norvegicus [3]): 5.7 mg/kg; ED50 (Cavia porcellus): 4.5 mg/kg; IC50 (Homo sapiens): 18000 nM
8 | COc1ccc([C@@]2(C#N)C[C@H]3C[C@H](C(=O)O)C[C@H]3C2)cc1OC1CCCC1 | > 300 |  |  | 
9 | COc1ccc([C@]2(C#N)C[C@H]3C[C@@H](C(=O)O)C[C@H]3C2)cc1OC | 160 |  |  | 
10 | COc1ccc([C@]2(C#N)C[C@H]3C[C@H](C(=O)O)C[C@H]3C2)cc1OC1CCCC1 | 150 |  | 3.8 | 
11 | COc1ccc([C@]2(C#N)C[C@H]3C[C@@H](C(=O)O)C[C@H]3C2)cc1OCC1CC1 | 100 |  |  | 
12 | COc1ccc([C@]2(C#N)C[C@H]3C[C@@H](C(=O)O)C[C@H]3C2)cc1OC1Cc2ccccc2C1 | 1.3 |  | 1.7 | 

Second part, led by results:

Row | IC50 (Phosphodiesterase 4 [1]) [nM] | SMILES | Inhibition (Rattus norvegicus [2]) [%] | ED50 (Rattus norvegicus [2]) [mg/kg] | also measured
13 | 62 | COc1ccc([C@]2(C#N)C[C@H]3C[C@@H](C(=O)O)C[C@H]3C2)cc1OC(C)C | 57 |  | 
14 | 62 | COc1ccc([C@]2(C#N)C[C@H]3C[C@@H](C(=O)NO)C[C@H]3C2)cc1OC | 55 |  | 
15 | 9.7 | COc1ccc([C@]2(C#N)C[C@H]3C[C@@H](C(=O)NO)C[C@H]3C2)cc1OC1CCCC1 | 52 |  | 
16 | 9 | COc1ccc([C@]2(C#N)C[C@H]3C[C@@H](C(=O)O)C[C@H]3C2)cc1OC1CCCC1 |  | 0.4 | ED50 (Cavia porcellus): 9.6 mg/kg; Inhibition (Rattus norvegicus [5]): 73%; IC50 (Homo sapiens): 21000 nM

Source: ChEMBL document CHEMBL1147610, “Orally active PDE4 inhibitors with therapeutic potential” (Bioorg Med Chem Lett, 2004)
